US10435399B2, “HDAC6 inhibitory heterocyclic compound” (TAKEDA PHARMACEUTICAL COMPANY LIMITED, priority 2017, dated 2019)

Each compound was assayed against T1, HDAC6 enzyme (Homo sapiens, UniProt Q9UBN7) (assay: HDAC6 enzyme inhibitory activity (HDAC-Glo I/II Assay kit)). Conditions: 10 μM; wells without enzyme = 100% inhibition.
T1 construct: transducing full length HDAC6 gene into Sf-9 insect cells; GST; purchased SignalChem; host or cells: Sf-9 insect cells
T1 sequence (Q9UBN7 1-1215): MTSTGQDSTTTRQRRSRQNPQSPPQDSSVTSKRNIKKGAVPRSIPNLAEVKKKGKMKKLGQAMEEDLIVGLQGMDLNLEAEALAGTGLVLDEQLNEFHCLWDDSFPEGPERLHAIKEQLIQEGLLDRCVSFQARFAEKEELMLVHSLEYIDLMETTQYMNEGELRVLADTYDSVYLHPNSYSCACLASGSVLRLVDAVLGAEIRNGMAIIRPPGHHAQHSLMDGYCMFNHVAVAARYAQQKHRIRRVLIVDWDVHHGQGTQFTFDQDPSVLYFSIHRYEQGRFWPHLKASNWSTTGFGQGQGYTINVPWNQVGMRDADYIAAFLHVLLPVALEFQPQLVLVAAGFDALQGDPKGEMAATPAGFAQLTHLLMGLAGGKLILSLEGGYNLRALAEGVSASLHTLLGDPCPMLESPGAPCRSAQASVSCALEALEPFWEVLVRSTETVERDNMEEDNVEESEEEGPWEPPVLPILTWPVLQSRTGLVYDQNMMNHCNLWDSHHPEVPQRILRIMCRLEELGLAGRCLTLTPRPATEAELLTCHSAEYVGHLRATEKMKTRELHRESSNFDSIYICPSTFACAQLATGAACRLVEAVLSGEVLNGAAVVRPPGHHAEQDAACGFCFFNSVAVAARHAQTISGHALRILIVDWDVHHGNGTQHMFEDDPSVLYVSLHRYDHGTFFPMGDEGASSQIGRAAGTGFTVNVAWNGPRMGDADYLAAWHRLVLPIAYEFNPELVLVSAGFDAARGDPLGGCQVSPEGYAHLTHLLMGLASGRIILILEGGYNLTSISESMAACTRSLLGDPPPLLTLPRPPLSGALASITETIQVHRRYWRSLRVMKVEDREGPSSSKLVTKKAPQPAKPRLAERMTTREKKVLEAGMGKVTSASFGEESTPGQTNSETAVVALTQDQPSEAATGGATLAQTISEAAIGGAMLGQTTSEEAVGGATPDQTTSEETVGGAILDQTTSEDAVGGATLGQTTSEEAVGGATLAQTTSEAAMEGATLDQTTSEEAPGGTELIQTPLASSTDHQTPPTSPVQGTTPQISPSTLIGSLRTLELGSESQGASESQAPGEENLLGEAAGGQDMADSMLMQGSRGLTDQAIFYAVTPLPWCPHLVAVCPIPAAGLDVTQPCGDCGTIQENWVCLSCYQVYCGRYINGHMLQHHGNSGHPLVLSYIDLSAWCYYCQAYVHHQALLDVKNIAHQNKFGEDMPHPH
Format: biochemical
In short: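 Sf-9-derived GST-purified full-length HDAC6 + cpd, 60 min RT, 24 mM Tris pH 7.5/0.6 mM glutathione/0.01% Tween-20; add HDAC-Glo substrate-developer, 20 min RT; luminescence. No-enzyme = 100% inhibition.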

Row | HDAC6 inhibitory rate (%) (10 μM) | SMILES
1 | 99% | Cc1ccc(C2CC(F)(F)CCN2N2Cc3ccc(-c4nnc(C(F)F)o4)cc3C2=O)nc1 (stereo not drawn) [Example 614, 6-(5-(difluoromethyl)-1,3,4-oxadiazol-2-yl)-2-(4,4-difluoro-2-(5-methylpyridin-2-yl)piperidin-1-yl)isoindolin-1-one (optical isomer)]
2 | 99% | Cc1ccc(C2CC(F)(F)CCN2N2Cc3ccc(-c4nnc(C(F)F)o4)cc3C2=O)nc1 (stereo not drawn) [Example 615, 6-(5-(difluoromethyl)-1,3,4-oxadiazol-2-yl)-2-(4,4-difluoro-2-(5-methylpyridin-2-yl)piperidin-1-yl)isoindolin-1-one (optical isomer)]
3 | 100% | O=C1c2cc(-c3nnc(C(F)F)o3)cnc2CN1[C@@H]1COCC[C@H]1Oc1ccc(F)cc1 [Example 633, 1,5-anhydro-2,4-dideoxy-2-(3-(5-(difluoromethyl)-1,3,4-oxadiazol-2-yl)-5-oxo-5,7-dihydro-6H-pyrrolo[3,4-b]pyridin-6-yl)-3-O-(4-fluorophenyl)-threo-pentitol (Optical Isomer)]

Same assay, conditions: 10 μM; wells without enzyme = 100% inhibition; read-out: HDAC6 inhibitory rate (%) (10 μM)

Row | inhibition at 10 µM | SMILES
4 | 99% | O=C(N[C@H]1[C@H](N2Cc3ncc(-c4nnc(C(F)F)o4)cc3C2=O)CCCC1(F)F)C(C(F)(F)F)C(F)(F)F [Example 613, N-((1S,6R)-6-(3-(5-(difluoromethyl)-1,3,4-oxadiazol-2-yl)-5-oxo-5,7-dihydro-6H-pyrrolo[3,4-b]pyridin-6-yl)-2,2-difluorocyclohexyl)-3,3,3-trifluoro-2-(trifluoromethyl)propanamide]
5 | 89% | O=C1c2cc(-c3nnc(C(F)F)o3)ccc2CN1c1cccn2ccnc12 [Example 616, 6-(5-(difluoromethyl)-1,3,4-oxadiazol-2-yl)-2-(imidazo[1,2-a]pyridin-8-yl)isoindolin-1-one]
6 | 100% | O=C1c2cc(-c3nnc(C(F)F)o3)ccc2CN1N1CCOCC1c1ccc(F)cc1 (centres unmarked) [Example 617, 6-(5-(difluoromethyl)-1,3,4-oxadiazol-2-yl)-2-(3-(4-fluorophenyl)morpholin-4-yl)isoindolin-1-one]
7 | 100% | O=C(N[C@@H]1[C@H](N2Cc3ccc(-c4nnc(C(F)F)o4)cc3C2=O)CCCC1(F)F)OCc1ccccc1 [Example 619, benzyl ((1R,6R)-6-(6-(5-(difluoromethyl)-1,3,4-oxadiazol-2-yl)-1-oxo-1,3-dihydro-2H-isoindol-2-yl)-2,2-difluorocyclohexyl)carbamate]
8 | 88% | N[C@@H]1[C@H](N2Cc3ccc(-c4nnc(C(F)F)o4)cc3C2=O)CCCC1(F)F [Example 621, 2-((1R,2R)-2-amino-3,3-difluorocyclohexyl)-6-(5-(difluoromethyl)-1,3,4-oxadiazol-2-yl)isoindolin-1-one]
9 | 100% | O=C(NCC(F)(F)C(F)(F)F)C1CC(F)(F)CCN1N1Cc2ccc(-c3nnc(C(F)F)o3)cc2C1=O (centres unmarked) [Example 622, 1-(6-(5-(difluoromethyl)-1,3,4-oxadiazol-2-yl)-1-oxo-1,3-dihydro-2H-isoindol-2-yl)-4,4-difluoro-N-(2,2,3,3,3-pentafluoropropyl)piperidine-2-carboxamide]
10 | 100% | O=C(NCC(F)F)C1CC(F)(F)CCN1N1Cc2ccc(-c3nnc(C(F)F)o3)cc2C1=O (centres unmarked) [Example 623, N-(2,2-difluoroethyl)-1-(6-(5-(difluoromethyl)-1,3,4-oxadiazol-2-yl)-1-oxo-1,3-dihydro-2H-isoindol-2-yl)-4,4-difluoropiperidine-2-carboxamide]
11 | 101% | O=C1c2cc(-c3nnc(C(F)F)o3)ccc2CN1[C@@H]1CCCC(F)(F)[C@@H]1NC(=O)C(F)(F)C(F)(F)F [Example 625, N-((1R,6R)-6-(6-(5-(difluoromethyl)-1,3,4-oxadiazol-2-yl)-1-oxo-1,3-dihydro-2H-isoindol-2-yl)-2,2-difluorocyclohexyl)-2,2,3,3,3-pentafluoropropanamide]
12 | 100% | CC(F)(F)C(=O)N[C@@H]1[C@H](N2Cc3ccc(-c4nnc(C(F)F)o4)cc3C2=O)CCCC1(F)F [Example 626, N-((1R,6R)-6-(6-(5-(difluoromethyl)-1,3,4-oxadiazol-2-yl)-1-oxo-1,3-dihydro-2H-isoindol-2-yl)-2,2-difluorocyclohexyl)-2,2-difluoropropanamide]
13 | 100% | COC(=O)N1CCC[C@@H](N2Cc3ccc(-c4nnc(C(F)F)o4)cc3C2=O)[C@H]1c1ccc(F)cc1 [Example 627, methyl (2R,3R)-3-(6-(5-(difluoromethyl)-1,3,4-oxadiazol-2-yl)-1-oxo-1,3-dihydro-2H-isoindol-2-yl)-2-(4-fluorophenyl)piperidine-1-carboxylate]
14 | 100% | O=C1c2cc(-c3nnc(C(F)F)o3)ccc2CN1[C@@H]1CCCC(F)(F)[C@@H]1NC(=O)C(F)(F)C(F)F [Example 628, N-((1R,6R)-6-(6-(5-(difluoromethyl)-1,3,4-oxadiazol-2-yl)-1-oxo-1,3-dihydro-2H-isoindol-2-yl)-2,2-difluorocyclohexyl)-2,2,3,3-tetrafluoropropanamide]
15 | 100% | O=C(N[C@@H]1[C@H](N2Cc3ccc(-c4nnc(C(F)F)o4)cc3C2=O)CCCC1(F)F)C(F)F [Example 629, N-((1R,6R)-6-(6-(5-(difluoromethyl)-1,3,4-oxadiazol-2-yl)-1-oxo-1,3-dihydro-2H-isoindol-2-yl)-2,2-difluorocyclohexyl)-2,2-difluoroacetamide]
16 | 100% | Cc1ccc(C2CCCCN2N2Cc3ccc(-c4nnc(C(F)F)o4)cc3C2=O)cn1 (centres unmarked) [Example 630, 6-(5-(difluoromethyl)-1,3,4-oxadiazol-2-yl)-2-(2-(6-methylpyridin-3-yl)piperidin-1-yl)isoindolin-1-one]
17 | 99% | Cn1cc(C(C)(C)O)c(N2Cc3ccc(-c4nnc(C(F)F)o4)cc3C2=O)n1 [Example 631, 6-(5-(difluoromethyl)-1,3,4-oxadiazol-2-yl)-2-(4-(2-hydroxypropan-2-yl)-1-methyl-1H-pyraozl-3-yl)isoindolin-1-one]
18 | 99% | O=C1c2cc(-c3nnc(C(F)F)o3)cnc2CN1[C@@H]1COCC[C@H]1Oc1ccc(F)cc1 [Example 632, 1,5-anhydro-2,4-dideoxy-2-(3-(5-(difluoromethyl)-1,3,4-oxadiazol-2-yl)-5-oxo-5,7-dihydro-6H-pyrrolo[3,4-b]pyridin-6-yl)-3-O-(4-fluorophenyl)-threo-pentitol]
19 | 99% | CC(C)(C)OC(=O)N[C@@H]1CCC(F)(F)C[C@H]1N1Cc2ccc(-c3nnc(C(F)F)o3)cc2C1=O [Example 634, tert-butyl ((1R,2R)-2-(6-(5-(difluoromethyl)-1,3,4-oxadiazol-2-yl)-1-oxo-1,3-dihydro-2H-isoindol-2-yl)-4,4-difluorocyclohexyl)carbamate]
20 | 99% | O=C1c2cc(-c3nnc(C(F)F)o3)ccc2CN1[C@@H]1CC(F)(F)CC[C@H]1NC(=O)C(F)(F)C(F)(F)F [Example 635, N-((1R,2R)-2-(6-(5-(difluoromethyl)-1,3,4-oxadiazol-2-yl)-1-oxo-1,3-dihydro-2H-isoindol-2-yl)-4,4-difluorocyclohexyl)-2,2,3,3,3-pentafluoropropanamide]
